{"source": "patent US20220125753A1", "about": "“COMPOSITIONS AND METHODS FOR TREATING ISCHEMIC STROKE” (The General Hospital Corporation, priority 2015, published 2022)", "key": {"[1]": {"system": "experimental cerebral ischemia/reperfusion", "conditions": "cited from earlier work"}, "[2]": {"system": "hemorrhage formation after tPa treatment", "conditions": "adult rats; intracerebral injection; cited from earlier work"}, "[3]": {"system": "transient middle cerebral artery occlusion", "conditions": "adult rats; intracerebral injection; cited from earlier work"}, "[4]": {"conditions": "cited from earlier work"}, "[5]": {"conditions": "for maximum plasma concentration / time of maximum plasma concentration: mean ± spread"}, "[6]": {"system": "unilateral hypoxia-ischemia in neonatal rats", "conditions": "given at the end of the hypoxic period, assessed at 48 hours; cited from earlier work"}, "Aß amyloid peptide [7]": {"system": "Aß amyloid peptide", "assay": "In vitro assays of Aß amyloid peptide polymerization into oligomers and aggregates", "type": "biochemical", "conditions": "at nanomolar concentrations", "experimental": "One of the most routinely used approaches to monitor Aβ polymerization is the thioflavin T binding assay (Elmaleh, 2014; Hori, 2015). […] AO peptide at 5 μM was mixed with 10 μM thioflavin T with drug at different concentrations.\nFibrillization of synthetic Aß40 (left column) or Aß42 (right column) peptides was followed over 1 hour."}, "Aß amyloid peptide [8]": {"system": "Aß amyloid peptide", "conditions": "at nanomolar concentrations; laboratory testing (Hori 2015; Elmaleh 2014); cited from earlier work"}, "clinical": {"assay": "clinical", "conditions": "human, in vivo, inhaled or intranasal, AUC (plasma)"}, "microglial cells": {"system": "microglial cells", "assay": "Microglia culture incubated with synthetic Aß40 or Aß42, Aß ELISA of media", "type": "cell-based", "conditions": "0.10 nM, 10 μM or 1 mM Cromolyn Sodium, 16 hours", "experimental": "After the incubation, the concentrations of […]-42 (right panel) in media were measured using Aß ELISA and normalized with microglia cell number and according to the PBS control condition. (n=3 experiments; *, P<0.05, **, P<0.01)"}, "APP/PS1 mice [9]": {"system": "APP/PS1 mice", "assay": "Short-term treatment of APP/PS1 mice, TBS soluble Aß in brain (ELISA, immunoblotting)", "type": "in vivo", "conditions": "after 1 week of peripherally administered cromolyn sodium (intraperitoneally daily), 7.5 months old APP/PS1 mice", "protocol": "One week after daily injection, tris-buffered saline (TBS) soluble Aßx-40 (left graph) and Aßx-42 (right graph) were measured under the condition with (black bar) or without (white bar) pre-incubation with guanidine (Gdn)-HCl using Aß ELISA. The value under the incubation with Gdn-HCl show the concentration of total TBS soluble Aß, and the value under the no incubation with Gdn-HCl show the concentration of monomeric Aß. FIG. 5B: oligomeric Aß in TBS soluble brain extracts were measured using 82E1/82E1 Aß oligomer specific ELISA. FIG. 5C illustrates representative immunoblotting of TBS soluble brain extracts with anti-Aß antibody (6E10 and 82E1) (left panel). The densitometry of monomeric Aß was quantified (right graph). (n=3-5/group; *, P<0.05, **, P<0.01)."}, "APP/PS1 mice [10]": {"system": "APP/PS1 mice", "assay": "Immunostaining of Aß and microglial marker Iba1 in brain sections", "type": "in vivo", "conditions": "3.15 mg/kg daily for seven days vs PBS"}, "[11]": {"conditions": "34.2 mg double inhaled dose, range"}}, "note": "“Also recorded” adds a separate entry of the source. Like-named read-outs stand apart in the source and are kept apart here."}
{"molecule": "O=C([O-])c1cc(=O)c2c(OCC(O)COc3cccc4oc(C(=O)[O-])cc(=O)c34)cccc2o1.[Na+].[Na+]", "note": "[Cromolyn]", "values": [{"measurement": "survival of experimental animals", "setting": "[1]", "value": "improved survival"}, {"measurement": "hemorrhage formation after tPa treatment", "setting": "[2]", "value": "inhibited"}, {"measurement": "neutrophil accumulation", "setting": "[3]", "value": "reduced"}, {"measurement": "variability of plasma levels following inhalation", "setting": "[4]", "value": "high intraand inter-subject variability"}, {"measurement": "cromolyn uptake by asthmatics", "setting": "[4]; inhalation, compared with healthy volunteers", "value": "lower than by healthy volunteers"}, {"measurement": "maximum plasma concentration", "setting": "[5]; 17.1 mg single inhaled dose, healthy volunteers", "value": "47.1 ± 33.6", "unit": "ng/mL"}, {"measurement": "time of maximum plasma concentration", "setting": "[5]; 17.1 mg single inhaled dose", "value": "23.3 ± 16.9", "unit": "min"}, {"measurement": "time of maximum plasma concentration, range", "setting": "[5]; 17.1 mg single inhaled dose, range", "value": "5 to 60", "unit": "min"}, {"measurement": "maximum plasma concentration, range", "setting": "[5]; 17.1 mg single inhaled dose, range over subjects", "value": "14.0 to 133", "unit": "ng/mL"}, {"measurement": "maximum plasma concentration", "setting": "[5]; 34.2 mg double inhaled dose", "value": "95.0 ± 45.5", "unit": "ng/mL"}, {"measurement": "time of maximum plasma concentration", "setting": "[5]; 34.2 mg double inhaled dose", "value": "22.2 ± 19.4", "unit": "min"}, {"measurement": "maximum plasma concentration, range", "setting": "[5]; [11]", "value": "36.1 to 236", "unit": "ng/mL"}, {"measurement": "time of maximum plasma concentration, range", "setting": "[5]; [11]", "value": "5 to 60", "unit": "min"}, {"measurement": "glial activation", "setting": "[6]", "value": "limited"}, {"measurement": "mast cell migration/degranulation", "setting": "[6]", "value": "limited"}, {"measurement": "neuronal loss", "setting": "[6]", "value": "limited"}, {"measurement": "inhibition of Aß aggregation / polymerization into oligomers and higher order aggregates", "setting": "Aß amyloid peptide [7]", "value": "inhibition; also recorded: effectively inhibits"}, {"measurement": "binding to and inhibition of amyloid β (Aβ) peptide oligomerization", "setting": "Aß amyloid peptide [8]", "value": "bind to and inhibit"}, {"measurement": "AUC", "setting": "clinical; 17.1 mg, 17.1 mg single dose inhalation, mean ± spread", "value": "148 ± 67.1", "unit": "ng·h/mL"}, {"measurement": "AUC", "setting": "clinical; 17.1 mg, range, 17.1 mg single dose inhalation", "value": "44.7 to 287", "unit": "ng·h/mL"}, {"measurement": "AUC", "setting": "clinical; 34.2 mg, 34.2 mg double dose inhalation, mean ± spread", "value": "254 ± 93.8", "unit": "ng·h/mL"}, {"measurement": "AUC", "setting": "clinical; 34.2 mg, range, 34.2 mg double dose inhalation", "value": "122 to 443", "unit": "ng·h/mL"}]}
{"molecule": "O=C(O)c1cc(=O)c2c(OCC(O)COc3cccc4oc(C(=O)O)cc(=O)c34)cccc2o1", "note": "[cromolyn sodium]", "values": [{"measurement": "Aß40 levels in media of microglia culture", "setting": "microglial cells; 50 nM synthetic Aß40", "value": "dose-dependent decrease"}, {"measurement": "Aß42 levels in media of microglia culture", "setting": "microglial cells; 50 nM synthetic Aß42", "value": "dose-dependent decrease"}, {"measurement": "decrease of total soluble Aβ levels", "setting": "APP/PS1 mice [9]", "value": "over 50%"}, {"measurement": "percentage of Iba1 immunoreactivity overlapping with amyloid", "setting": "APP/PS1 mice [10]", "value": "higher percentage"}, {"measurement": "percentage of Iba1 immunoreactivity overlapping with amyloid", "setting": "APP/PS1 mice [10]; listed as Cromolyn Sodium", "value": "increased overlap"}]}
